This is an account of results in patent US9073961B2, “Substitution derivatives of N6 -benzyladenosine-5′-monophosphate, methods of preparation thereof, use thereof as medicaments, and therapeutic preparations containing these compounds” (UNIVERZITA PALACKEHO V OLOMOUCI, priority 2010, dated 2015).

For assay [1], the system named is K-562 (human erythroleukemia). Put plainly: Calcein AM cytotoxicity assay, K-562. The assay is classed as cell-based. The note with it: 72 hours incubation. The procedure, abridged:
(§1)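 Cells pre-incubated 24 h at 37 °C, 5% CO2, then exposed 72 h to six 3-fold dilutions of compound (top 166.7 μM), in triplicate. Calcein AM added to 1 μg/ml final; fluorescence read after 1 h. GI50 is the concentration giving 50% reduction of esterase activity, taken from dose-response curves.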

In the next assay the test system is caspase-3. Kind of assay: Activity of caspase-3 in CEM cells (Apo-ONE kit). The format is cell-based. The note with it: 10 μM, 12 and 24 hours. On the procedure: In the course of apoptosis, caspase cascade is activated. Caspase-3 is an effector caspase that plays a role in the induction of some changes typical for apoptosis (chromatin condensation, DNA fragmentation).
Leukemia cell line CEM was cultured in cell culture medium (DMEM containing 5 g/l glucose, 2 mM glutamine, 100 U/ml peniciline, 100 μg/ml streptomycine, 10% fetal calf serum and sodium bicarbonate). 24 hours before treatment, cell suspensions were centrifuged, diluted to concentration of 500000 cells per ml with fresh medium and pipetted in 50 µL aliquotes into 96-well plate. After 12 and 24 hours of incubation with the test compound, the activity of caspase-3 was measured using commercial kit (Apo-ONE, Promega) that is based on quantification of hydrolysis of fluorogenic substrate Z-DEVD-R110 (excitation 480 nm/emission 520 nm). Reaction specifity was confirmed in a control experiment, when both test compound and caspase-3 inhibitor Ac-DEVD-CHO were added. All experiments were done in triplicate.

For assay [2], the system named is G-361 (human malignant melanoma). Kind of assay: Calcein AM cytotoxicity assay, G-361. The format is cell-based. The note with it: 72 hours incubation. From the text:
Because toxic compounds negatively influence metabolic processes in cells, many standard cytotoxicity assays are based on measurement of metabolisation rate of various artificial substrates. Resulting product is then quantified e.g. by means of spectrometry. The assays can be easily modified for use in 96-well plates. For evaluation of cytotoxic effect of the novel substituted 9-substituted cytokinin derivatives of this invention, a microtiter assay based on quantification of metabolisation of Calcein AM was used. The assay is widely used in drug screening programs and in chemosensitivity testing. In the living cells, Calcein AM is enzymatically hydrolysed and accumulation of resulting calcein is manifested by green fluorescence.
In the routine screening the following cell lines have been used: CEM (T-lymphoblastoid leukemia), HL-60 (promyelocytic leukemia), K-562 (human erythroleukemia), MCF-7 (breast carcinoma), HOS (human osteogenic sarcoma), and G-361 (human malignant melanoma). Normal human fibroblasts BJ were used as a control for routine screening of the compounds. The cells were kept in Nunc/Corning 80 cm^2 plastic bottles and grown in cell culture medium (DMEM containing 5 g/l glucose, 2 mM glutamine, 100 U/ml penicilline, 100 μg/ml streptomycine, 10% fetal bovine serum and sodium hydrogencarbonate), the compounds were prepared according to the procedure of the present invention.
The cell suspensions were prepared and diluted according to the particular cell type and the expected target cell density (2.500-30.000 cells per well based on cell growth characteristics) and pippetted (80 μl) into 96-well plates. Inoculates were allowed a pre-incubation period of 24 hours at 37° C. and 5% CO2 for stabilisation. Tested compound was added in total volume of 20 μl of water at time zero. Usually, test compound was evaluated at six 3-fold dilutions. In routine testing, the highest concentration tested was 166.7 μM. All drug concentrations were tested in triplicates. Incubations of cells with the test compounds lasted for 72 hours at 37° C., in 5% CO2 atmosphere and 100% humidity. At the end of incubation period Calcein AM in PBS was added into final concentration of 1 μg/ml. After another 1 hour of incubation fluorescence (FD) was measured with the Labsystem FIA Reader Fluoroscan Ascent (Microsystems). Tumor cell survival (TCS) was estimated using the following equation: […]=(FDdrug exposed well/FDcontrol well)×100%. The GI50 value, the drug concentration causing 50% reduction of esterase activity, was calculated from the obtained dose response curves (FIG. 1).
Cytoxicity of novel compounds was tested on panel of cell lines of different histogenetic and species origin (Table 3). […] The effective novel derivatives killed tumour cells in concentrations close to 0.1-50 μM.

The test system of assay [3] is Normal human fibroblasts BJ. Kind of assay: Calcein AM cytotoxicity assay, BJ. The assay is classed as cell-based. The note with it: 72 hours incubation. The procedure, abridged: as §1
Assay [4] relates to CEM (T-lymphoblastoid leukemia). Put plainly: Calcein AM cytotoxicity assay, CEM. The assay is classed as cell-based. The procedure, abridged: as §1
Assay [5] relates to HL-60 (promyelocytic leukemia). Put plainly: Calcein AM cytotoxicity assay, HL60. The format is cell-based, human. As to conditions: 72 hours incubation. The method in brief:
as §1

The subject of assay [6] is HOS (human osteogenic sarcoma). Kind of assay: Calcein AM cytotoxicity assay, HOS. The format is cell-based. The note with it: 72 hours incubation. The method in brief:
as §1

One may read the GI50 as the concentration giving 50% growth inhibition. The term IC50 denotes the concentration that gives 50% inhibition. For `O=P(O)(O)OC[C@H]1O[C@@H](n2cnc3c(NCc4ccccc4O)ncnc32)[C@H](O)[C@@H]1O` [Compound 21, 6-(2-hydroxybenzylamino)purine riboside-5′-monophosphate], the concentration for 50% growth inhibition (GI50) in assay [1] was 4000 nM; in assay [2] it was 13500 nM; in assay [3], 43200 nM; in assay [4] (72 hours incubation, Calcein AM), 1300 nM; in assay [5] it was 480 nM; in assay [6] it was 2500 nM. Also, the “activation of caspase-3” value with caspase-3 was “activates caspase-3”. The IC50 in assay [4] (FIG. 2 legend) is 1300 nM.
